According to patent US20250223306A1, “TEAD INHIBITORS AND METHODS OF USE” (Sporos BioDiscovery, Inc., priority 2022, published 2025):

How the values were obtained:
MSTO-211H xenograft = experiment: Inhibition of mouse xenograft MSTO-211H tumors; format: in vivo, BALB/c nude mice; conditions: 12.5 mg/kg, PO, BID; for Tumor Volume (mean): day 27 (Table 16); for Relative T/C (treated/control relative tumor volume ratio) / TGI: day 27; for Relative T/C (treated/control relative tumor volume ratio): T/C(%) = TRTV / CRTV × 100; for TGI: TGI = [1 − (Ti − T0)/ (Vi − V0)] × 100
Description: This study evaluated the in vivo anti-tumor efficacy of test compounds in BALB/c nude mice for treatment of MSTO-211H xenograft of lung cancer.
• Species: Mus Musculus • Strain: BALB/c nude • Age: 6-8 weeks • Sex: female • Body weight: 18-22 g • Number of animals inoculated with tumor: 80 mice • Number of animals enrolled in the treatment: 36 mice • Number of unenrolled animals: 44 mice • Animal supplier: Beijing Vital River Biotechnology Experimental Animal Co. Ltd Certification number: 20170011010591
The MSTO-211H tumor cells were maintained in RPMI 1640 medium supplemented with 10% Fetal bovine serum and 1% Antibiotic-Antimycotic at 37° C. in an atmosphere of 5% CO2 in air. The tumor cells were routinely subcultured twice weekly by trypsin-EDTA. The cells growing in an exponential growth phase with 95% cell survival or above were harvested, and counted for tumor inoculation.
Each mouse was inoculated subcutaneously at the right flank with MSTO-211H tumor cells (5×10^6+50% matrigel/0.2 mL) for tumor development. Animals were marked with earrings with unique 6 significant figure number for identification. The treatments were started when the average tumor volume reached an average size of 181 mm^3.
The major endpoint was to see if the tumor growth could be delayed or mice could be cured. Tumor volume was measured twice a week in two dimensions using a caliper, and the volume was expressed in mm^3 using the formula: V=0.5 a×b^2 where a and b are the long and short diameters of the tumor, respectively. The tumor size was then used for calculations of T/C value. The TGI value (in percent) or the T/C value (in percent) is an indication of antitumor effectiveness; T and C are the mean tumor volumes or tumor weights of the treated and control groups, respectively, on a given day.
TGI was calculated for each group using the formula: TGI (%)=[1−(Ti−T0)/(Vi−V0)]×100; Ti is the average tumor volume of a treatment group on a given day, To is the average tumor volume of the treatment group on the day of treatment start, Vi is the average tumor volume of the vehicle control group on the same day with Ti, and V0 is the average tumor volume of the vehicle group on the day of treatment start.
Relative T/C (%)=TRTV/CRTV×100 (RTV(%)=Vt/V0×100, Vt is the average tumor volume on a given day, V0 is the average tumor volume on the first day of treatment. TRTV is the RTV of a treatment group, and the CRTV is the RTV of the vehicle control group.)
Summary statistics, including mean and the standard error of the mean (SEM), were provided for the tumor volume of each group at each time point.
Statistical analysis of difference in tumor volume among the groups was conducted on the data obtained at the end of the study.
One-tailed T test was performed to compare tumor volumes between two groups. All data are analyzed using GraphPad Prism 6.0. p<0.05 is considered to be statistically significant.
The antitumor effectiveness of the study was analyzed on PG-D27 when vehicle group reached 588 mm^3.

[1] = tested on: TEAD/YAP promoter element in MCF7-Luc cells; experiment: Cell-based TEAD-promoter transcriptional activity assay (MCF-7 TEAD luciferase); conditions: MCF-7 TEAD luciferase assay, 24 hrs
Description: Luciferase based TEAD-transcriptional cell-based reporter assay: To measure the effect of the TEAD inhibitors disclosed herein on TEAD transcriptional activity in cell-based systems, we employed a stable MCF7 cell line expressing luciferase under a consensus synthetic TEAD/YAP promoter element (MCF7-Luc, BPS Bioscience, Catalog #60618). This MCF7-TEAD-Luc cell line has been extensively validated with both genetic and pharmacological intervention, showing inhibition of luciferase expression and luminescence in response to ablation of the TEAD/YAP pathway. MCF7-Luc cells were plated at 10,000 cells per well in white 384-well plates and settled by a quick spin. The media was MEM (Gibco) supplemented with 10% fetal bovine serum (ExCell), selenium-transferrin-insulin mix (Gibco), 1× non-essential amino acids (Gibco) and sodium pyruvate (Gibco). Cells were allowed to attach and grow overnight (37° C., 5% CO2 in humidified incubator), and test compounds were added the next day. Compounds were dissolved at 1000× fold excess in DMSO and made into 2-fold serial dilution, and added to media at 30 μL of media per well. A DMSO-only well serves a vehicle control. The highest concentration of drug in media was 1,000 nM. Positive control compounds include K975 (pan-TEAD inhibitor) and negative control (Actinomycin). Cells were incubated for 24 hrs with test compounds and positive controls, after which time, the luminescence was measured by the One-Glo luciferase kit (Promega). 30 μL of One-Glo reagent was added to each well and shaken for 8 minutes to lyse the cells. The plates were centrifugated at 1000 RPM for 1 minute to settle all liquid in the well and eliminate bubbles. Luminescence was quantified using an ENVision plate reader (Perkin Elmer). Percent inhibition of luminescence by test compound was expressed as a function of test compound concentration, with the no-test compound DMSO only wells serving as baseline. EC50 values for each compound were calculated with a non-linear asymptotic line fit.

[2] = day 0 after the start of treatment
[3] = day 3 after the start of treatment
[4] = day 6 after the start of treatment
[5] = day 10 after the start of treatment
[6] = day 13 after the start of treatment
[7] = day 17 after the start of treatment
[8] = day 20 after the start of treatment
[9] = day 23 after the start of treatment
[10] = day 27 after the start of treatment

SMILES	Tumor size (mean) (MSTO-211H xenograft; [2])	Tumor size (mean) (MSTO-211H xenograft; [3])	Tumor size (mean) (MSTO-211H xenograft; [4])	Tumor size (mean) (MSTO-211H xenograft; [5])	Tumor size (mean) (MSTO-211H xenograft; [6])	Tumor size (mean) (MSTO-211H xenograft; [7])	Tumor size (mean) (MSTO-211H xenograft; [8])	Tumor size (mean) (MSTO-211H xenograft; [9])	Tumor Volume (mean) (MSTO-211H xenograft)	Relative T/C (treated/control relative tumor volume ratio) (MSTO-211H xenograft)	TGI (MSTO-211H xenograft)	Tumor size (mean) (MSTO-211H xenograft; [10])	EC50 [1]	EC50 ([1]; Homo sapiens, MCF7)
C[C@H](CO)NC(=O)c1cnc2c(C3=CCC(C(F)(F)F)CC3)cccc2c1 (stereo partly drawn) [Compound 7, N—((R)-1-hydroxypropan-2-yl)-8-(4-(trifluoromethyl)cyclohex-1-en-1-yl)quinoline-3-carboxamide]	181 mm^3	245 mm^3	219 mm^3	124 mm^3	99 mm^3	86 mm^3	109 mm^3	117 mm^3	126 mm^3	21.4%	113.6%	126 mm^3	–	–
COc1cc(C2=CCC(C(F)(F)F)CC2)c2ncc(C(=O)N[C@H](C)CO)cc2c1 (stereo partly drawn) [Compound 110, N—((R)-1-hydroxypropan-2-yl)-6-methoxy-8-(4-(trifluoromethyl)cyclohex-1-en-1-yl)quinoline-3-carboxamide]	181 mm^3	207 mm^3	179 mm^3	107 mm^3	75 mm^3	51 mm^3	42 mm^3	53 mm^3	50 mm^3	8.5%	132.4%	50 mm^3	–	–
C[C@H](NC(=O)c1cnc2c(C3=CC[C@@H](C(F)(F)F)CC3)cccc2c1)c1ncco1 (single isomer, unassigned) [Compound 20, N-(1-(oxazol-2-yl)ethyl)-8-(4-(trifluoromethyl)cyclohex-1-en-1-yl)quinoline-3-carboxamide]	–	–	–	–	–	–	–	–	–	–	–	–	< 200 nM	–
C[C@@H](NC(=O)c1cnc2c(C3=CCC4(CC3)CC4)cccc2c1)c1ncco1 [Compound 166, (R)—N-(1-(oxazol-2-yl)ethyl)-8-(spiro[2.5]oct-5-en-6-yl)quinoline-3-carboxamide]	181 mm^3	192 mm^3	177 mm^3	153 mm^3	145 mm^3	139 mm^3	148 mm^3	184 mm^3	219 mm^3	38.1%	90.7%	219 mm^3	–	–
O=C(NCc1ncco1)c1cnc2c(C3=CCC(C(F)(F)F)CC3)cccc2c1 (stereo not shown) [Compound 11, N-(oxazol-2-ylmethyl)-8-(4-(trifluoromethyl)cyclohex-1-en-1-yl)quinoline-3-carboxamide]	–	–	–	–	–	–	–	–	–	–	–	–	–	< 200 nM
C[C@H](NC(=O)c1cnc2c(C3=CC[C@@H](C(F)(F)F)CC3)cccc2c1)c1ncco1 (single isomer, unassigned) [Compound 19, N-(1-(oxazol-2-yl)ethyl)-8-(4-(trifluoromethyl)cyclohex-1-en-1-yl)quinoline-3-carboxamide]	–	–	–	–	–	–	–	–	–	–	–	–	–	< 200 nM
COC[C@H](CO)NC(=O)c1cnc2c(C3=CCC(C(F)(F)F)CC3)cccc2c1 (stereo partly drawn) [Compound 62, N—((S)-1-hydroxy-3-methoxypropan-2-yl)-8-(4-(trifluoromethyl)cyclohex-1-en-1-yl)quinoline-3-carboxamide]	181 mm^3	224 mm^3	228 mm^3	149 mm^3	111 mm^3	82 mm^3	88 mm^3	101 mm^3	104 mm^3	17.9%	119.1%	104 mm^3	–	–
C[C@H](NC(=O)c1cnc2c(C3=CCC(C(F)(F)F)CC3)cccc2c1)c1ccccn1 (stereo partly drawn) [Compound 2, N—((S)-1-(pyridin-2-yl)ethyl)-8-(4-(trifluoromethyl)cyclohex-1-en-1-yl)quinoline-3-carboxamide]	–	–	–	–	–	–	–	–	–	–	–	–	–	< 200 nM
COc1cc(C2=CCC(C(F)(F)F)CC2)c2ncc(C(=O)N[C@H](C)c3ncco3)cc2c1 (stereo partly drawn) [Compound 109, 6-methoxy-N—((R)-1-(oxazol-2-yl)ethyl)-8-(4-(trifluoromethyl)cyclohex-1-en-1-yl)quinoline-3-carboxamide]	181 mm^3	216 mm^3	174 mm^3	89 mm^3	59 mm^3	44 mm^3	44 mm^3	46 mm^3	58 mm^3	10.1%	130.2%	58 mm^3	–	–
